“Also recorded” adds a separate entry of the source.
Assays:
[1] = system: murine model of endometriosis; test: Surgically induced murine model of endometriosis; format: in vivo, mouse
Method: Female mice were randomly divided into three groups (sham, endometriosis treated with vehicle, and endometriosis treated with Bobcat) and subjected to surgery (week 1) to induce endometriosis or sham (FIG. 22A). The first once-a-week intraperitoneal (i.p.) injection of Bobcat339 (or vehicle) at a dose of 2.5 mg/kg was performed on week 3, followed by euthanasia and blood and tissue collection at week 9.
Given that Bobcat339 degrades TET3 inducing apoptosis (FIG. 26) and that myeloid-specific Tet3 ablation attenuates endometriosis (FIG. 28A through FIG. 28C), studies were performed to test whether Bobcat339 would elicit therapeutic effects on endometriosis. Thus, female mice were randomly divided into three groups (sham, endometriosis treated with vehicle, and endometriosis treated with Bobcat339) and subjected to surgery (week 0) to induce endometriosis or sham (FIG. 28D). The first once-a-week intraperitoneal (i.p.) injection of Bobcat339 (or vehicle) at a dose of 2.5 mg/kg body weight was performed on week 2, followed by euthanasia and blood and tissue collection on week 8. The dose of 2.5 mg/kg was chosen based on the previous studies showing no discernible liver toxicity in mice (Lv et al., 2023, Proc Natl Acad Sci USA, In press).
As Bobcat339 destabilized TET3, thus promoting macrophage apoptosis, additional studies tested whether Bobcat339 inhibits endometriosis (FIG. 25). Female mice were randomly divided into three groups (sham, endometriosis treated with vehicle, and endometriosis treated with Bobcat339) and subjected to surgery (week 0) to induce endometriosis or sham (FIG. 26). The first once-a-week intraperitoneal (i.p.) injection of Bobcat339 (or vehicle) at a dose of 3 mg/kg body weight was performed on week 2, followed by euthanasia and sample collection on week 8.
Bobcat339 powder was freshly dissolved in DMSO at a concentration of 50 mg/mL and filtered through a 0.22 micron filter. It was further diluted with 1×PBS to a final concentration of 0.5 mg/mL before injections. Mice were injected intraperitoneally with Bobcat339 at 2.5 mg/kg body weight.
Briefly, uterus horns were removed from wild-type female donor mice, opened longitudinally and cut into fragments of 3 mm. Two uterine segments were sutured to each right and left parietal peritoneum of recipient mice (6-7 weeks old) with absorbable suture. Sham surgeries were performed for sham group, using the same surgical procedure without the introduction of extraneous uterine tissue. The experimental model was allowed to develop for more than 4 weeks. Development of the model was confirmed by opening the abdominal cavity and measuring the size of endometriotic lesions both macroscopically and histologically.

Agrp, Npy and Slc32a1 = Agrp, Npy and Slc32a1 mRNA in GT1-7 cells; format: cell-based, mouse; conditions: 10 μM, 48 h
Description: Mouse GT1-7 hypothalamic neuronal cell line (Sigma-Aldrich, SCC116) and human SH-SY5Y neuroblastoma cell line (Sigma Aldrich, 94030304) were purchased and cultured according to the manufacturers' instructions. Purified Ad-TET3 adenovirus (Ad-FLAG.h-TET3, ADV-225322, Vector Biolabs) expressing human TET3 from a CMV promoter and Ad-GFP control adenovirus (1060, Vector Biolabs) were purchased.
For Bobcat339 treatment (FIG. 15A and FIG. 15B), GT1-7 cells grown in 24-well plates at 2×10^5 cells/well were incubated with vehicle or Bobcat339 at a final concentration of 10 μM for 6 h, followed by RNA and protein extractions. […] Protein and RNA were isolated 48 h later and analyzed.
Total RNAs were extracted from neuronal cells or homogenized hypothalamic arcuate nucleus tissue samples using PureLink RNA Mini Kit (Ambion, 12183025). cDNA was synthesized using PrimeScript RT Reagent Kit in a 20 μl reaction containing 0.5-1 μg of total RNA. Real-time quantitative PCR was performed in a 15 μl reaction containing 0.5-1 μl of cDNA using SsoAdvanced Universal SYBR Green Supermix in a Bio-Rad iCycler. […]

Tet3 mRNA = Tet3 mRNA in the ARC of mice; format: in vivo, mouse; conditions: 2.5 mg/kg i.p., two days
Method: To test whether Bobcat339 affects TET3 protein expression in AgRP neurons, Agrp-IRES-Cre::LSL-Cas9-GFP mice with GFP expression specifically in AgRP neurons were intraperitoneally injected with vehicle or Bobcat339 at 2.5 mg/kg, followed by isolation of ARCs under fed conditions (9:00-11:00) two days later. This dose was chosen based on the dose response studies. TET2 expression was widespread but was negligible in AgRP neurons.
Bobcat339 powder (Sigma-Aldrich, SML2611) was freshly dissolved in DMSO (vehicle) at a concentration of 50 mg/mL and filtered through a 0.22 micron. It was further diluted with 1×PBS to a final concentration of 0.5 mg/mL before injections. Mice were injected intraperitoneally with Bobcat339 at 1 mg/kg, 2.5 mg/kg, or 4 mg/kg.
Total RNAs were extracted from neuronal cells or homogenized hypothalamic arcuate nucleus tissue samples using PureLink RNA Mini Kit (Ambion, 12183025). cDNA was synthesized using PrimeScript RT Reagent Kit in a 20 μl reaction containing 0.5-1 μg of total RNA. Real-time quantitative PCR was performed in a 15 μl reaction containing 0.5-1 μl of cDNA using SsoAdvanced Universal SYBR Green Supermix in a Bio-Rad iCycler. Specificity was verified by melting curve analysis. The Ct values of each sample were used in the post-PCR data analysis. Gene expression levels were normalized against RPLP0.

## Nc1nc(=O)n(-c2cccc(-c3ccccc3)c2)cc1Cl [Bobcat339, 4-Amino-1-[1,1′-biphenyl]-3-yl-5-chloro-2(1H)-pyrimidinone]
[1]; 2.5 mg/kg i.p. once a week
  TET3-expressing (CD163 double positive) macrophages in lesions: depletion of TET3/CD163-double positive cells; also recorded: depletion of TET3-expressing macrophages
  body weight: no statistically significant differences were observed in body weight; also recorded: nor was there a significant difference in body weight
  endometriosis lesion volume: significantly reduced the lesion volume; also recorded: a significant decrease in lesion volume; also recorded: a significantly decrease in lesion volume
  food intake / appetite in endometriosis mice: the decrease was not observed; also recorded: improved appetite
[1]; 3 mg/kg i.p. once a week
  IL-1b and IL-6 expression in CD163+ macrophage-enriched areas: a dramatic reduction in the expression of IL-1b and IL-6
  body weight: nor was there a significant difference in body weight
  endometriosis lesion volume: significantly reduced the lesion volume
  number of TET3-overexpressing CD163+ macrophages: a marked decrease in the number of TET3-overexpressing CD163^+ macrophages
Agrp, Npy and Slc32a1; with TET3-expressing adenovirus (Ad-TET3)
  Agrp, Npy and Slc32a1 mRNA levels: not seen when the level of TET3 protein was restored; also recorded: not seen when TET3 was overexpressed
Agrp, Npy and Slc32a1; without exogenous TET3
  Agrp, Npy and Slc32a1 mRNA levels: increased in the mRNA levels of both Agrp and Npy; also recorded: increases in the mRNA levels of Agrp, Npy and Slc32a1; also recorded: significant increases in the Agrp/Nyp mRNAs
Tet3 mRNA
  Tet3 mRNA in the ARC: did not alter the mRNA abundance of Tet3; also recorded: no significant change
